In US9115169B2, “Method of treating tumors” (Lytix Biopharma AS, priority 2000, dated 2015):
≈ marks a conversion by molar mass, not a printed value. Where two headings read alike, the source gives them in different places. Where a SMILES comes first, the peptide text is derived from it. Where no end group is shown, it is not given here. [ ]: non-standard residue; d: D form. The star is where a group is joined. Trp(2-Pmc) = Cc1c(C)c(S(=O)(=O)c2[nH]c3ccccc3c2C[C@H](N)C(=O)O)c(C)c2c1OC(C)(C)CC2; Bip = N[C@@H](Cc1ccc(-c2ccccc2)cc1)C(=O)O; OBn = c1ccc(CO*)cc1

Columns and labels:
[1] = test system: Escherichia coli ATCC 25922
[2] = test system: Staphylococcus aureus ATCC 25923

Molecule | MIC E. coli ([1]; ATCC 25922) | MIC E. coli ([1]; Table 8, second column) | MIC S. aureus ([2]; ATCC 25923) | MIC S. aureus ([2]; Table 8, second column) | Minimum inhibitory concentration E. coli ([1]; ATCC 25922) | Minimum inhibitory concentration S. aureus ([2]; ATCC 25923) | MIC E. coli ([1]; Table 8, first column) | MIC S. aureus ([2]; Table 8, first column)
C[C@H](N)C(=O)N[C@@H](C)C(=O)N[C@@H](Cc1ccc(-c2ccccc2)cc1)C(=O)N[C@@H](Cc1ccc(-c2ccccc2)cc1)C(=O)N[C@@H](CCCNC(=N)N)C(=O)N[C@@H](CCCNC(=N)N)C(N)=O [AABBRR-NH2] (H-AA[Bip][Bip]RR-NH2; N-terminus assumed) | 20 to 35 µg/mL | 21.8-38.1 μM/ml | 5 µg/mL (≈ 5.45 µM) | 5.4 μM/ml | – | – | – | –
C[C@H](N)C(=O)N[C@@H](C)C(=O)N[C@@H](Cc1c[nH]c2ccccc12)C(=O)N[C@@H](Cc1ccc(-c2ccccc2)cc1)C(=O)N[C@@H](CCCNC(=N)N)C(=O)N[C@@H](CCCNC(=N)N)C(N)=O [AAWBRR-NH2] (H-AAW[Bip]RR-NH2; N-terminus assumed) | 150 µg/mL (≈ 170 µM) | 170.2 μM/ml | 20 to 35 µg/mL | 22.7-39.7 μM/ml | – | – | – | –
Cc1c(C)c(S(=O)(=O)c2[nH]c3ccccc3c2C[C@H](NC(=O)[C@H](C)NC(=O)[C@H](C)N)C(=O)N[C@@H](CCCNC(=N)N)C(=O)N[C@@H](Cc2ccc(-c3ccccc3)cc2)C(=O)N[C@@H](CCCNC(=N)N)C(N)=O)c(C)c2c1OC(C)(C)CC2 [AAWRBR-NH2 Pmc+] (H-AA[Trp(2-Pmc)]R[Bip]R-NH2; N-terminus assumed) | – | 13.1 μM/ml | – | 2.2 μM/ml | – | – | – | –
C[C@H](N)C(=O)N[C@@H](C)C(=O)N[C@@H](Cc1c[nH]c2ccccc12)C(=O)N[C@@H](CCCNC(=N)N)C(=O)N[C@@H](Cc1ccc(-c2ccccc2)cc1)C(=O)N[C@@H](CCCNC(=N)N)C(N)=O [AAWRBR-NH2] (H-AAWR[Bip]R-NH2; N-terminus assumed) | 150 to 300 µg/mL | – | 35 µg/mL (≈ 39.7 µM) | 39.7 μM/ml | – | – | – | –
C[C@H](N)C(=O)N[C@@H](C)C(=O)N[C@@H](Cc1c[nH]c2ccccc12)C(=O)N[C@@H](Cc1c[nH]c2ccccc12)C(=O)N[C@@H](CCCNC(=N)N)C(=O)N[C@@H](CCCNC(=N)N)C(N)=O [AAWWRR-NH2] (H-AAWWRR-NH2; N-terminus assumed) | >200 µg/mL | 237.0 μM/ml | >200 µg/mL | 237.0 μM/ml | – | – | – | –
Cc1c(C)c(S(=O)(=O)c2[nH]c3ccccc3c2C[C@H](NC(=O)[C@H](C)N)C(=O)N[C@@H](CCCNC(=N)N)C(=O)N[C@@H](Cc2ccc(-c3ccccc3)cc2)C(=O)N[C@@H](CCCNC(=N)N)C(=O)N[C@@H](C)C(N)=O)c(C)c2c1OC(C)(C)CC2 [AWRBRA-NH2 Pmc+] (H-A[Trp(2-Pmc)]R[Bip]RA-NH2; N-terminus assumed) | – | 8.7 μM/ml | – | 2.2 μM/ml | – | – | – | –
C[C@H](N)C(=O)N[C@@H](Cc1c[nH]c2ccccc12)C(=O)N[C@@H](CCCNC(=N)N)C(=O)N[C@@H](Cc1ccc(-c2ccccc2)cc1)C(=O)N[C@@H](CCCNC(=N)N)C(=O)N[C@@H](C)C(N)=O [AWRBRA-NH2] (H-AWR[Bip]RA-NH2; N-terminus assumed) | 35 µg/mL (≈ 39.7 µM) | 39.7 μM/ml | 35 µg/mL (≈ 39.7 µM) | 39.7 μM/ml | – | – | – | –
C[C@H](NC(=O)[C@H](C)NC(=O)[C@H](Cc1ccc(-c2ccccc2)cc1)NC(=O)[C@@H](N)Cc1ccc(-c2ccccc2)cc1)C(=O)N[C@@H](CCCNC(=N)N)C(=O)N[C@@H](CCCNC(=N)N)C(N)=O [BBAARR-NH2] (H-[Bip][Bip]AARR-NH2; N-terminus assumed) | >150 µg/mL | 163.4 μM/ml | 5 µg/mL (≈ 5.45 µM) | 5.4 μM/ml | – | – | – | –
N=C(N)NCCC[C@H](NC(=O)[C@H](CCCNC(=N)N)NC(=O)[C@H](Cc1ccc(-c2ccccc2)cc1)NC(=O)[C@@H](N)Cc1ccc(-c2ccccc2)cc1)C(N)=O [BBRR-NH2] (H-[Bip][Bip]RR-NH2; N-terminus assumed) | 50 µg/mL (≈ 64.4 µM) | 64.4 μM/ml | 5 µg/mL (≈ 6.44 µM) | 6.4 μM/ml | – | – | – | –
C[C@H](NC(=O)[C@H](C)NC(=O)[C@H](CCCNC(=N)N)NC(=O)[C@H](CCCNC(=N)N)NC(=O)[C@H](Cc1ccc(-c2ccccc2)cc1)NC(=O)[C@@H](N)Cc1ccc(-c2ccccc2)cc1)C(N)=O [BBRRAA-NH2] (H-[Bip][Bip]RRAA-NH2; N-terminus assumed) | 75 µg/mL (≈ 81.7 µM) | 81.7 μM/ml | 5 µg/mL (≈ 5.45 µM) | 5.4 μM/ml | – | – | – | –
NCCCC[C@H](N)CN[C@@H](Cc1c[nH]c2ccccc12)C(=O)OCc1ccccc1 [Kψ(CH2NH)WOBzl] | – | – | – | – | >300 µg/mL | 300 µg/mL (≈ 734 µM) | – | –
C[C@H](NC(=O)[C@H](C)NC(=O)[C@H](CCCNC(=N)N)NC(=O)[C@@H](N)CCCNC(=N)N)C(=O)N[C@@H](Cc1c[nH]c2ccccc12)C(=O)N[C@@H](Cc1ccc(-c2ccccc2)cc1)C(N)=O [RRAAWB-NH2] (H-RRAAW[Bip]-NH2; N-terminus assumed) | 150 to 300 µg/mL | – | 10 µg/mL (≈ 11.4 µM) | 11.3 μM/ml | – | – | – | –
C[C@H](NC(=O)[C@H](C)NC(=O)[C@H](CCCNC(=N)N)NC(=O)[C@@H](N)CCCNC(=N)N)C(=O)N[C@@H](Cc1c[nH]c2ccccc12)C(=O)N[C@@H](Cc1c[nH]c2ccccc12)C(N)=O [RRAAWW-NH2] (H-RRAAWW-NH2; N-terminus assumed) | >200 µg/mL | 237.0 μM/ml | >200 µg/mL | 237.0 μM/ml | – | – | – | –
C[C@H](NC(=O)[C@H](C)NC(=O)[C@H](Cc1ccc(-c2ccccc2)cc1)NC(=O)[C@@H](N)Cc1c[nH]c2ccccc12)C(=O)N[C@@H](CCCNC(=N)N)C(=O)N[C@@H](CCCNC(=N)N)C(N)=O [WBAARR-NH2] (H-W[Bip]AARR-NH2; N-terminus assumed) | >300 µg/mL | 340.5 μM/ml | 35 µg/mL (≈ 39.7 µM) | 39.7 μM/ml | – | – | – | –
Cc1c(C)c(S(=O)(=O)c2[nH]c3ccccc3c2C[C@H](N)C(=O)N[C@@H](Cc2ccc(-c3ccccc3)cc2)C(=O)N[C@@H](CCCNC(=N)N)C(=O)N[C@@H](CCCNC(=N)N)C(N)=O)c(C)c2c1OC(C)(C)CC2 [WBRR-NH2 Pmc+] (H-[Trp(2-Pmc)][Bip]RR-NH2; N-terminus assumed) | >100 µg/mL | 99.5 μM/ml | 5 to 10 µg/mL | 5.0-9.9 μM/ml | – | – | – | –
N=C(N)NCCC[C@H](NC(=O)[C@H](CCCNC(=N)N)NC(=O)[C@H](Cc1ccc(-c2ccccc2)cc1)NC(=O)[C@@H](N)Cc1c[nH]c2ccccc12)C(N)=O [WBRR-NH2] (H-W[Bip]RR-NH2; N-terminus assumed) | >100 µg/mL | 135.3 μM/ml | 20 µg/mL (≈ 27.1 µM) | 27.1 μM/ml | – | – | – | –
C[C@H](NC(=O)[C@H](C)NC(=O)[C@H](CCCNC(=N)N)NC(=O)[C@H](CCCNC(=N)N)NC(=O)[C@H](Cc1ccc(-c2ccccc2)cc1)NC(=O)[C@@H](N)Cc1c[nH]c2ccccc12)C(N)=O [WBRRAA-NH2] (H-W[Bip]RRAA-NH2; N-terminus assumed) | >300 µg/mL | 340.5 μM/ml | 75 µg/mL (≈ 85.1 µM) | 85.1 μM/ml | – | – | – | –
C[C@H](NC(=O)[C@H](C)NC(=O)[C@H](CCCNC(=N)N)NC(=O)[C@@H](N)Cc1c[nH]c2ccccc12)C(=O)N[C@@H](Cc1ccc(-c2ccccc2)cc1)C(=O)N[C@@H](CCCNC(=N)N)C(N)=O [WRAABR-NH2] (H-WRAA[Bip]R-NH2; N-terminus assumed) | 150 µg/mL (≈ 170 µM) | 170.2 μM/ml | 35 µg/mL (≈ 39.7 µM) | 39.7 μM/ml | – | – | – | –
C[C@H](NC(=O)[C@H](C)NC(=O)[C@H](CCCNC(=N)N)NC(=O)[C@@H](N)Cc1c[nH]c2ccccc12)C(=O)N[C@@H](Cc1c[nH]c2ccccc12)C(=O)N[C@@H](CCCNC(=N)N)C(N)=O [WRAAWR-NH2] (H-WRAAWR-NH2; N-terminus assumed) | >200 µg/mL | 237.0 μM/ml | >200 µg/mL | 237.0 μM/ml | – | – | – | –
Cc1c(C)c(S(=O)(=O)c2[nH]c3ccccc3c2C[C@H](N)C(=O)N[C@@H](CCCNC(=N)N)C(=O)N[C@@H](Cc2ccc(-c3ccccc3)cc2)C(=O)N[C@@H](CCCNC(=N)N)C(=O)N[C@@H](C)C(=O)N[C@@H](C)C(N)=O)c(C)c2c1OC(C)(C)CC2 [WRBRAA-NH2 Pmc+] (H-[Trp(2-Pmc)]R[Bip]RAA-NH2; N-terminus assumed) | – | 13.1 μM/ml | – | 4.4 μM/ml | – | – | – | –
C[C@H](NC(=O)[C@H](C)NC(=O)[C@H](CCCNC(=N)N)NC(=O)[C@H](Cc1ccc(-c2ccccc2)cc1)NC(=O)[C@H](CCCNC(=N)N)NC(=O)[C@@H](N)Cc1c[nH]c2ccccc12)C(N)=O [WRBRAA-NH2] (H-WR[Bip]RAA-NH2; N-terminus assumed) | 150 µg/mL (≈ 170 µM) | 170.2 μM/ml | 35 µg/mL (≈ 39.7 µM) | 39.7 μM/ml | – | – | – | –
N=C(N)NCCC[C@H](NC(=O)[C@@H](N)Cc1c[nH]c2ccccc12)C(=O)N[C@@H](Cc1c[nH]c2ccccc12)C(=O)OCc1ccccc1 [WRW-OBzl] (H-Trp-Arg-Trp-OBn) | – | – | 5 µg/mL (≈ 7.85 µM) | – | – | – | – | –
C[C@H](NC(=O)[C@H](C)NC(=O)[C@H](Cc1c[nH]c2ccccc12)NC(=O)[C@@H](N)Cc1c[nH]c2ccccc12)C(=O)N[C@@H](CCCNC(=N)N)C(=O)N[C@@H](CCCNC(=N)N)C(N)=O [WWAARR-NH2] (H-WWAARR-NH2; N-terminus assumed) | >200 µg/mL | 237.0 μM/ml | >200 µg/mL | 237.0 μM/ml | – | – | – | –
NCCCC[C@@H](N)C(=O)N[C@@H](Cc1c[nH]c2ccccc12)C(=O)OCc1ccccc1 [kW-OBzl] (H-[dK]-Trp-OBn) | >300 µg/mL | – | 100 µg/mL (≈ 237 µM) | – | >300 µg/mL | 100 µg/mL (≈ 237 µM) | – | –
AAWWRR-NH2 Pmc+: hexapeptide amide having the Pmc group (also: Pmc group, position not given here) | – | 18.0 μM/ml | – | 2.3 μM/ml | – | – | 20 µg/mL | 2.5 µg/mL
